Values joined by “and” are separate entries in the source; they are usually repeats but may differ in a detail not shown here. Identical values can stand only once. Like-named read-outs stand apart in the source and are kept apart here.
How the values were obtained:
[1] = test system: progenitors in DNA synthesis (S) phase of the cell cycle; details: for BFU-E Cycling Status of Progenitors / CFU-GEMM Cycling Status of Progenitors / CFU-GM Cycling Status of Progenitors: % progenitors in S phase; for BFU-E Cycling Status of Progenitors / CFU-GEMM Cycling Status of Progenitors / CFU-GM Cycling Status of Progenitors / AGAR Culture CFU-GM Cycling Status of Progenitors: s.c. 80 μg/kg
Experimental: (§1) For the progenitor cell numbers and cycling status, the numbers of CFU-GM, BFU-E and CFU-GEMM in methylcellulose cultures by stimulation of the cells with 1 Unit (U)/ml recombinant human (rhu) erythropoietin, 100 U/ml rhu granulocyte-macrophage colony stimulating factor (GM-CSF), 100 U/ml rhu interleukin-3 (IL-3) and 50 ng/ml rhu steel factor (SLF=stem cell factor (SCF)). The CFU-GM were also evaluated in agar cultures stimulated with 100 U/ml rhu GM-CSF and 50 ng/ml rhu SLF. For both types of assays, colonies were scored after 14 day incubation in a humidified atmosphere with 5% CO2 and lowered (5%) O2 tension. Cell cycling status of progenitors was measured using a high specific activity tritiated thymidine kill technique as previously described (Broxmeyer, H. E., et al., Exp. Hematol. (1989) 17:455-459).

[2] = test system: CFU-GM, BFU-E and CFU-GEMM progenitor cells; details: 5 donors, s.c. 80 μg/kg
Experimental: All progenitor cell results are based on the scoring of 3 culture plates per assay per point.
as §1

[3] = individual donors P1-P5, T = 1 hour
[4] = individual donors P1-P5, T = 3 hours
[5] = individual donors P1-P5, T = 6 hours
[6] = individual donors P1-P5, T = 9 hours
[7] = individual donors P1-P5, T = 24 hours

`c1cc(CN2CCCNCCNCCCNCC2)ccc1CN1CCCNCCNCCCNCC1` [AMD3100, 1,1′-[1,4-phenylene-bis(methylene)]-bis-1,4,8,11-tetraazacyclotetradecane] was tested, and the “BFU-E Cycling Status of Progenitors” value [1, 3] was 3% and 0% (4×), the “CFU-GEMM Cycling Status of Progenitors” value [1, 3] was 6% and 0% (4×) and the “CFU-GM Cycling Status of Progenitors” value [1, 3] was 1% and 0% (4×). The “CFU-GEMM Cycling Status of Progenitors” value [1, 4] was 0% (4×) and 7%, the “BFU-E Cycling Status of Progenitors” value [1, 5] was 0% (4×) and 1% and the “CFU-GEMM Cycling Status of Progenitors” value [1, 5] was 0% (4×) and 8%. For the same molecule, the “CFU-GM Cycling Status of Progenitors” value [1, 5] was 0%, the “BFU-E Cycling Status of Progenitors” value [1, 6] was 0% (4×) and 11% and the “CFU-GEMM Cycling Status of Progenitors” value [1, 6] was 4% and 0% (4×). The “CFU-GM Cycling Status of Progenitors” value [1, 6] was 2% and 0% (4×), the “BFU-E Cycling Status of Progenitors” value [1, 7] was 2% and 0% (3×) and 3% and the “CFU-GEMM Cycling Status of Progenitors” value [1, 7] was 0%. For the same molecule, the “CFU-GM Cycling Status of Progenitors” value [1, 7] was 0% (3×) and 3% and 5%, the “AGAR Culture CFU-GM Cycling Status of Progenitors” value (“AGAR Culture CFU-GM Cycling Status” for short) [1, 3] was 3% and 0% (4×) and the “AGAR Culture CFU-GM Cycling Status” value [1, 4] was 0% (4×) and 1%. For the same molecule, the “AGAR Culture CFU-GM Cycling Status” value [1, 5] was 1% and 0% (2×) and 3% (2×), the “AGAR Culture CFU-GM Cycling Status” value ([1]; individual donors P2-P5, T = 9 hours) was 0% and the “AGAR Culture CFU-GM Cycling Status” value ([1]; individual donors P2-P5, T = 24 hours) was 0%. For the same molecule, the “cycling state of progenitors” value ([1]; prior to and 1, 3, 6, 9 and 24 hours after injection, human donors) was “slow or non-cycling state”, the “mean fold change vs T=0, methylcellulose culture BFU-E, MEAN” value ([2]; T = 1 hour) was 1.99 and the “mean fold change vs T=0, methylcellulose culture CFU-GEMM, MEAN” value ([2]; T = 1 hour) was 2.32. For the same molecule, the “mean fold change vs T=0, methylcellulose culture CFU-GM, MEAN” value ([2]; T = 1 hour) was 4.77, the “methylcellulose culture BFU-E, % CHG” value ([2]; T = 1 hour) was 98.9% and the “methylcellulose culture CFU-GEMM, % CHG” value ([2]; T = 1 hour) was 131.8%. For the same molecule, the “methylcellulose culture CFU-GM, % CHG” value ([2]; T = 1 hour) was 376.7%, the “mean fold change vs T=0, methylcellulose culture BFU-E, MEAN” value ([2]; T = 3 hours) was 3.21 and the “mean fold change vs T=0, methylcellulose culture CFU-GEMM, MEAN” value ([2]; T = 3 hours) was 4.33. For the same molecule, the “mean fold change vs T=0, methylcellulose culture CFU-GM, MEAN” value ([2]; T = 3 hours) was 13.66, the “methylcellulose culture BFU-E, % CHG” value ([2]; T = 3 hours) was 221.3% and the “methylcellulose culture CFU-GEMM, % CHG” value ([2]; T = 3 hours) was 332.5%. The “methylcellulose culture CFU-GM, % CHG” value ([2]; T = 3 hours) was 1266.5%, the “mean fold change vs T=0, methylcellulose culture BFU-E, MEAN” value ([2]; T = 6 hours) was 6.01 and the “mean fold change vs T=0, methylcellulose culture CFU-GEMM, MEAN” value ([2]; T = 6 hours) was 10.07. The “mean fold change vs T=0, methylcellulose culture CFU-GM, MEAN” value ([2]; T = 6 hours) was 21.71, the “methylcellulose culture BFU-E, % CHG” value ([2]; T = 6 hours) was 500.5% and the “methylcellulose culture CFU-GEMM, % CHG” value ([2]; T = 6 hours) was 907.2%. For the same molecule, the “methylcellulose culture CFU-GM, % CHG” value ([2]; T = 6 hours) was 2070.6%, the “mean fold change vs T=0, methylcellulose culture BFU-E, MEAN” value ([2]; T = 9 hours) was 4.34 and the “mean fold change vs T=0, methylcellulose culture CFU-GEMM, MEAN” value ([2]; T = 9 hours) was 5.25. The “mean fold change vs T=0, methylcellulose culture CFU-GM, MEAN” value ([2]; T = 9 hours) was 10.47, the “methylcellulose culture BFU-E, % CHG” value ([2]; T = 9 hours) was 334.4% and the “methylcellulose culture CFU-GEMM, % CHG” value ([2]; T = 9 hours) was 425.4%. For the same molecule, the “methylcellulose culture CFU-GM, % CHG” value ([2]; T = 9 hours) was 947.3%, the “mean fold change vs T=0, methylcellulose culture BFU-E, MEAN” value ([2]; T = 24 hours) was 1.26 and the “mean fold change vs T=0, methylcellulose culture CFU-GEMM, MEAN” value ([2]; T = 24 hours) was 1.53. For the same molecule, the “mean fold change vs T=0, methylcellulose culture CFU-GM, MEAN” value ([2]; T = 24 hours) was 1.56, the “methylcellulose culture BFU-E, % CHG” value ([2]; T = 24 hours) was 26.3% and the “methylcellulose culture CFU-GEMM, % CHG” value ([2]; T = 24 hours) was 53.2%. The “methylcellulose culture CFU-GM, % CHG” value ([2]; T = 24 hours) was 55.5%.
